From a melting point compilation (Tetko et al.; mined from patent text by program, amines drawn as free bases though some values may be those of a salt)

SMILES | melting point
Clc1ccc2[nH]c3c(Cl)nc4ccccc4c3c2c1 | 250 °C
O=C(COc1ccccc1)NCCCn1ccnc1 | 91 to 93 °C
CC(C)CC(=O)Nc1cccc(-c2ccnc3c(-c4cccc(C(F)(F)F)c4)cnn23)c1 | 170 to 173 °C
COc1cc(Br)c(O)c([N+](=O)[O-])c1 | 116 to 118 °C
CCCCCC[C@@H]1C[C@H](c2ccc(OC)cc2)C(=O)O1 | 35 to 36 °C
Nc1nnc(-c2ccc3ncn(-c4cc(C(F)(F)F)ccc4Cl)c3c2)o1 | 288 to 289 °C
CCn1c(C(c2cccc(F)c2)c2cccc(F)c2)nc(-c2ccncc2)c1-c1ccc(Cl)cc1 | 184 to 186 °C
O=c1ncc(F)cn1COCc1ccc(Cl)cc1 | 103 °C
CNC(=O)c1cc(-c2ccc(F)cc2)c2c3c(ccc2n1)OCO3 | 233 to 235 °C
CC1(C)CC(=O)OC1CC(=O)c1ccc(Cl)cc1 (configuration not stated) | 76 to 80 °C
O=C(O)C(Cl)=C(Cl)C(=O)O | 107 to 110 °C
C=CCOc1ccccc1-c1ncc(C(N)=O)c(=O)[nH]1 | 202 to 204 °C
COc1c(C=O)cc(Cl)c(Cl)c1OC | 75 to 77 °C
CC1CCN(c2nccc(Oc3ccc(NC(=O)c4cc(F)cc(N5CCCCC5)c4)c4ccccc34)n2)CC1 | 145 to 146 °C
c1cncc(-c2nc(COc3ccc(CCCn4ccnc4)cc3)cs2)c1 | 67 to 68 °C
NC(=O)C1CCN(CCO)CC1 | 141 to 142 °C
CC1(C)C=Cc2cc(C(=O)NCCO)ccc2O1 | 60 to 70 °C
O=C(NC1CC1)c1ccccc1SSc1ccccc1C(=O)NC1CC1 | 257 to 259 °C
C=CCC=CCC=CCCCCCCCc1cccc(O)c1 | 60 °C
CC1(C)CCC(C)(C)c2nc3c(nc21)CCc1c(-c2ccc(C(=O)O)cc2)nn(Cc2cccnc2)c1-3 | 250 to 252 °C
CC(C)(O)CCOc1c(-c2ccc(S(N)(=O)=O)cc2)cnn(-c2ccc(F)c(F)c2)c1=O | 181 °C
Cc1nc2c(O)c(CC[C@@H](O)c3ccc(F)cc3)c(C(=O)N(C)C)cc2n1C | 276 to 277 °C
Cn1cc(C=O)c(-c2ccc([N+](=O)[O-])o2)n1 | 181 to 182 °C
COc1ccc(C2C3=C(COC3=O)Nc3onc(-c4ccc(Cl)cc4)c32)cc1O (configuration not stated) | 245 to 246 °C

SMILES | melting point
CCCCCCCCCCCCOc1ccc(-c2ccc(CCCCC(=O)OCC)cc2)cc1 | 99 °C
O=c1c2cc(F)c(N3CCCC3)nc2n(Cc2ccccc2)c(=O)n1O | 219 to 220 °C
COc1ccc(-c2ccc(Cl)nn2)c(OCC2CO2)c1 (configuration not stated) | 111 to 112 °C
CC1=NN=C(c2ccc([N+](=O)[O-])cc2)c2cc(Cl)ccc2C1 | 199 to 203 °C
COC(=O)[C@@H]1CN(C(=O)OCc2ccccc2)C[C@H]1c1ccc(OC)c(OC2CCCC2)c1 (relative stereo) | 85 °C
COc1cc(C)nc(NC(=O)NS(=O)(=O)c2cccc3c2OC(C)(C)O3)n1 | 180 to 183 °C
COC(=O)Cn1nnnc1-c1c(Cl)c(Cl)cc2[nH]c(=O)c(=O)[nH]c12 | 281 to 283 °C
Cc1cc2c3c(cc(C)c2[nH]c1=O)CC(CBr)O3 (configuration not stated) | 277 to 278 °C
Nc1cc(-c2ccc(Cl)c(Cl)c2)[nH]n1 | 169 to 170 °C
CC1(CCc2ccc(O)c(C(C)(C)C)c2)NC(=O)NC1=O (configuration not stated) | 246 °C
CS(=O)(=O)N1CCN(C(=O)Cl)C1=O | 178 °C
COc1ccc2c(c1)c(Cc1cc(=O)n(-c3cccc(C(F)(F)F)c3)[nH]1)c(C)n2C(=O)c1ccccc1 | 60 to 64.5 °C
CCOP(=O)(/C=C/c1cn(-c2ccccc2)nc1OCc1ccc(OCc2nc(-c3ccco3)oc2C)c(OC)c1)OCC | 60 to 63 °C
OCc1ccccc1OCc1ncc2ccccc2n1 | 92 to 96 °C
CCCCCN1C(=O)C(NC(=O)OC(C)(C)C)c2ccccc21 (configuration not stated) | 145 to 147 °C
ONCc1ccccc1Cl | 71 to 73 °C
CC(C)c1ccc(N(C)C)c(C(C)C)c1NC(=O)CN1CCN(CCSc2nc3ccccc3o2)CC1 | 159 to 161 °C
COc1cc(C)c2c(c1)-c1c([nH]c3ccccc13)C2 | 208 °C
CN(C)S(=O)(=O)Nc1ccc2[nH]cc(CC#N)c2c1 | 147 to 150 °C
N#Cc1cc(C(F)(F)F)nn1-c1ccc(NC(=O)c2cccnc2F)cc1 | 150 to 151 °C
Nc1cc(C(F)(F)F)c([N+](=O)[O-])cc1C(=O)O | 237 °C
Nc1cccc(C(=O)Nc2ccc(NNC=O)cc2)c1 | 177 to 178 °C
CN1C(=O)C(C)(C)C(=O)N(C)c2cc(Br)ccc21 | 194 to 195 °C
CC(=O)OC(C)c1nccc2[nH]c(=O)ccc12 (configuration not stated) | 185 to 187 °C

SMILES | melting point
CCCc1nc2c(N)nc3cc(OCc4ccccc4OC)ccc3c2n1CC(C)C | 205 to 206 °C
CCc1nn2c(N)cc(Cl)nc2c1S(=O)(=O)c1ccccc1 | > 220 °C
Cc1ccc2c(N)c3c(nc2c1)CCSC3 | 239 to 245 °C
NS(=O)(=O)c1ccc(NC(=O)CNc2ccccc2)cc1Cl | 192 to 194 °C
Cn1c(SC(F)F)n[nH]c1=O | 87 °C
COC(=O)c1ccc(CNC(=O)C2Cc3ccccc3N2S(=O)(=O)c2ccc(-c3ccc(F)cc3)cc2)cc1 (configuration not stated) | 66 to 73 °C
O=C(Cc1ccccc1)Nc1ccc(CN2C(=O)[C@H]3CCC[C@H]3N(C(=O)CN3C(=O)c4ccccc4C3=O)c3ccccc32)cc1 (relative stereo) | 143 to 145 °C
CCOC(=O)c1cnc2c(c1)N(Cc1cc(F)ccc1F)CCN2 | 124 to 125 °C
NC(=O)c1cc(C(=O)c2ccccc2)ccc1[N+](=O)[O-] | 244 °C
Cc1c(C(Cl)=Cc2ccc(C(F)(F)F)cc2)ccc2nc(N)nc(N)c12 | > 300 °C
CC1(C)COP(=O)(OC(C#N)c2cccc(Oc3ccccc3)c2)OC1 (configuration not stated) | 140 °C
CC1NC(=O)NN=C1c1ccc(O)cc1 (configuration not stated) | 256 to 259 °C
CCCCCCCCCCCCCCCCCCOc1cc(OCCCOc2ccc(S(C)=O)cc2)cc(C(=O)OC)c1 (configuration not stated) | 86 to 88 °C
CC(C)(O)C(=O)Nc1nc(-c2ccco2)c(C(=O)c2ccccc2)s1 | 153 to 154 °C
CSCc1cn(C)c2c(Cl)cccc2c1=O | 146 to 148 °C
CCCc1nc(C(C)(C)O)c(C(=O)O)n1Cc1ccc(-c2ccccc2C(=O)C(=O)O)cc1 | 183 to 185 °C
CC(C)c1cccc(C(C)C)c1N1C(=O)c2cccc3c(Br)ccc(c23)C1=O | 277 °C
CC(C)(C)OC(=O)CCc1ccc(O)cc1CN | 154 to 157 °C
CCn1nnnc1C(CO)=C(c1ccc(F)cc1)c1ccc(F)cc1 | 103 to 111 °C
COc1ccc(C=CC(=O)O)cc1-c1cc2c(cc1OCCCCCCCC(=O)OC(C)(C)C)C(C)(C)CCC2(C)C | 126 to 128 °C
CC(=O)NC[C@H]1CN(c2cc(F)c(N3CCC(Cc4noc(-c5ccccc5)n4)CC3)c(F)c2)C(=O)O1 | 152 to 154 °C
CCCn1c(COCC)nc2c(N)nc3ccc(OCc4ccccc4)cc3c21 | 152 to 154 °C
CCCc1nn(C)c2c(=O)n(CCOc3ccc(SC(C)(C)C(=O)OCC)cc3)c(C)nc12 | 106 to 108 °C
O=c1c2c(CSc3ncnc4[nH]cnc34)cccc2nc(C(F)(F)F)n1-c1ccccc1Cl | 218 to 219 °C
